Results taken from PMC6701825, “Antiproliferative and Antimigratory Effects of a Novel YAP–TEAD Interaction Inhibitor Identified Using in Silico Molecular Docking” (Journal of Medicinal Chemistry, 2019).

Tests used:
HeLa cells = experiment: Live/dead cell viability assay (ethidium homodimer-1) in HeLa cells; format: cell-based; conditions: 6 hours
Procedure: Cell viability was quantified using the live/dead viability/cytotoxicity assay standard protocol (Invitrogen). Maximum cell death was quantified by incubating cells for 10 min with 0.1% Triton-X, followed by incubation with 0.4 μM ethidium homodimer-1 for an additional 10 min. Fluorescence was measured using a GloMax Discover multiplate reader (Promega).
Supplement Figure 3: Effect of shortlisted compounds on cell viability
HeLa cells transduced with TEAD-NLUC reporter were treated with indicated compounds at 100 µM for 6 hours (n=3). Cell viability was quantified by staining with 0.4 µM ethidium homodimer-1 and ethidium homodimer-1 uptake quantified by measuring fluorescence at 645 nm using a Glomax Discover plate reader.
(1 picture or pasted object on this page, not shown here)
Supplement Figure 6: Effect of CPD3, CPD3.1, CPD3.2 and CPD 3.3 on cell viability HeLa cells transduced with TEAD-NLUC reporter were treated with indicated concentrations of CPD3, CPD3.1, CPD3.2 and CPD 3.3 for 6 hours (n=3). Cell viability was quantified by staining with 0.4 µM ethidium homodimer-1 and ethidium homodimer-1 uptake quantified by measuring fluorescence at 645 nm using a Glomax Discover plate

[1] = system: TEAD-dependent transcriptional activity; experiment: 8xTEAD secreted nanoluciferase (TEAD-NLUC) reporter assay in HeLa cells; format: cell-based, human; conditions: HeLa, indicated concentrations, 6 h
From the text: The shortlisted sets of 16 compounds were first assayed for their ability to inhibit TEAD-dependent transcriptional activity in HeLa cells that had been transduced with a recombinant lentiviral vector expressing secreted bioluminescent nanoluciferase (NLUC) reporter gene enzyme, which is expressed under the control of a promoter region containing eight TEAD DNA-binding elements (TEAD-NLUC).
Compounds were initially screened for ability to inhibit TEAD-dependent transcriptional activity in HeLa cells transduced with a lentiviral vector expressing secreted nanoluciferase under the control of multimerized TEAD consensus elements (5′-[…]-3′). 8xTEAD NanoLuc was generated by cloning the 8xTEAD promoter from the 8xTEAD-Luc plasmid (Addgene #34615) into the pENTR gateway entry vector (Promega). This was then recombined into pLNT-sec-Nluc-2A-eGFP destination vector (supplied by Tristan McKay; University of Manchester). Lentiviruses were generated by Viafect-mediated co-transfection of pLNT8x-TEAD-sec-Nluc-2A-eGFP, Δ8.9, and VSV-G vectors into HEK293T cells (ATCC), and lentiviral-containing culture supernatants were used to infect HeLa cells in the presence of 6 μg/mL polybrene. For compound screening, 8xTEAD NanoLuc-transduced HeLa cells were seeded at 2 × 10^4 cells/well in 96-well plates. After 48 h, the cells were washed in PBS and incubated with test compounds at the indicated concentrations for 2 h. The cells were washed again in PBS and incubated with the compound for a further 4 h. Conditioned culture medium (50 μL) was assayed for secreted nanoluciferase activity using NanoGlo activity assays kit (Promega) and a Glomax Discover luminometer.

[2] = indicated concentrations, HeLa (Supplement Figure 6)

## OCC(O)CN1CCNCC1 (centres unmarked) [CPD3.2]
HeLa cells; [2]
  effect on cell viability: Neither CPD3.2 nor CPD3.3 had any effect
[1]
  effect on TEAD-NLUC activity: Neither CPD3.2 nor CPD3.3 had any effect

## O=C(O)c1ccco1 [CPD3.3]
HeLa cells; [2]
  effect on cell viability: Neither CPD3.2 nor CPD3.3 had any effect
[1]
  effect on TEAD-NLUC activity: Neither CPD3.2 nor CPD3.3 had any effect

## O=C(NCCn1ncc2c(N3CCN(c4ncccn4)CC3)ncnc21)C12CC3CC(CC(C3)C1)C2 [CPD8]
HeLa cells; 100 µM, HeLa TEAD-NLUC cells
  effect on cell viability: without significantly affecting cell viability
